Patent US20220098159A1, “CARBAMATE DERIVATIVES AND USES THEREOF” (Nodthera Limited, priority 2019, published 2022)
pIC50: −log10 of the molar value.

test system: IL-1β release upon NLRP3 activation in peripheral blood mononuclear cells (PBMC); experiment: PBMC IC50 determination assay (inhibition of IL-1β release upon NLRP3 activation); type: cell-based; settings: Homo sapiens, PBMC, read-out: Average PBMC IC50 (μM)
Experimental: The compounds of the present disclosure were tested for their inhibitory activity against IL-1β release upon NLRP3 activation in peripheral blood mononuclear cells (PBMC).
Protocol A. PBMC were isolated from buffy coats by density gradient centrifugation on Histopaque-1077 (Sigma, cat no. 10771). Isolated cells were seeded into the wells of a 96-well plate and incubated for 3 h with lipopolysaccharide (LPS). Following medium exchange, the compounds of the present disclosure were added (a single compound per well) and the cells were incubated for 30 min. Next, the cells were stimulated either with ATP (5 mM) or nigericin (10 μM) for 1 h and the cell culture media from the wells were collected for further analysis.
The release of IL-1β into the media was determined by a quantitative detection of IL-1β in the media using an IL-1β enzyme-linked immunosorbent assay (ELISA) Ready-SET-Go!, eBioscience cat. No. 88-7261-88. Briefly, in a first step, high affinity binding plates (Corning, Costar 9018 or NUNC Maxisorp Cat No. 44-2404) were coated overnight at 4° C. with specific capture antibody included in the kit (anti-human IL-1β ref. 14-7018-68). Subsequently, plates were blocked with blocking buffer for 1 h at room temperature (rt) and after washing with a buffer (PBS with 0.05% Tween-20) incubated with protein standard and culture media. After 2 h of incubation at rt, plates were washed and incubated with biotinylated detection antibody included in the kit (anti-human IL-1β Biotin ref. 33-7110-68) for 1 h at rt. Plates were washed and incubated with HRP-streptavidin for 30 min at rt and washed again. The signal was developed after addition of 3,3′,5,5′-tetramethylbenzidine-peroxidase (TMB) until colour appeared and the reaction was stopped by 2 M H2SO4. A microplate spectrophotometer (BioTek) was used to detect signals with 450 nm. The detection range of IL-1β ELISA was 2-150 ng/ml.
Protocol B. PBMC were isolated from buffy coats by density gradient centrifugation on Histopaque-1077 (Sigma, cat no. 10771). Isolated cells were seeded into the wells (280,000 cells/well) of a 96-well plate and incubated for 3 h with lipopolysaccharide (LPS, 1 μg/ml diluted 1000× from a 1 mg/ml stock solution). The compounds of the present disclosure were added (a single compound per well) and the cells were incubated for 30 min. Next, the cells were stimulated with ATP (5 mM final concentration diluted 20× from a 100 mM stock solution) for 1 h and the cell culture media from the wells were collected for further analysis.
The release of IL-1β into the media was determined by quantitative detection of IL-1β in the media using HTRF®, CisBio cat. No. 62HIL1BPEH. Briefly, cell culture supernatant were dispensed directly into the assay plate containing antibodies labelled with the HTRF® donor and acceptor. A microplate spectrophotometer (BMG) was used to detect signals at 655 nm and 620 nm. The detection range of IL-1β HTRF® was 39-6500 pg/ml.

| Compound | IC50 |
| --- | --- |
| CC(C)OC(=O)C(Cc1ncccn1)OC(=O)N[C@@H](C)c1ccc(Cl)c(Cl)c1 (stereo partly drawn) [Compound 2, Propan-2-yl 2-({[(1S)-1-(3,4-dichlorophenyl)ethyl]carbamoyl}oxy)-3-(pyrimidin-2-yl)propanoate] | 10 to 50 µM |
| CC(C)OC(=O)[C@@H](Cn1cncn1)OC(=O)N[C@@H](C)c1ccc(C2CC2)cc1 [Compound 10, Propan-2-yl (2R)-2-({[(1S)-1-(4-cyclopropylphenyl)ethyl]carbamoyl}oxy)-3-(1H-1,2,4-triazol-1-yl)propanoate] | < 1 µM |
| CCc1ccc([C@H](C)NC(=O)O[C@H](Cn2cncn2)C(=O)OC(C)C)cc1 [Compound 12, Propan-2-yl (2R)-2-({[(1S)-1-(4-ethylphenyl)ethyl]carbamoyl}oxy)-3-(1H-1,2,4-triazol-1-yl)propanoate] | < 1 µM |
| CC(C)OC(=O)[C@@H](Cn1cncn1)OC(=O)N[C@@H](C)c1ccc(C(C)C)cc1 [Compound 13, Propan-2-yl (2R)-2-({[(1S)-1-[4-(propan-2-yl)phenyl]ethyl]carbamoyl}oxy)-3-(1H-1,2,4-triazol-1-yl)propanoate] | < 1 µM |
| CC(C)OC(=O)[C@@H](Cn1cncn1)OC(=O)N[C@@H](C)c1ccc(C(F)(F)F)nc1 [Compound 14, Propan-2-yl (2R)-3-(1H-1,2,4-triazol-1-yl)-2-({[(1S)-1-[6-(trifluoromethyl)pyridin-3-yl]ethyl]carbamoyl}oxy)propanoate] | 10 to 50 µM |
| CC(C)OC(=O)[C@@H](Cn1cncn1)OC(=O)N[C@H](C)c1ccc(C(F)(F)F)nc1 [Compound 15, Propan-2-yl (2R)-3-(1H-1,2,4-triazol-1-yl)-2-({[(1R)-1-[6-(trifluoromethyl)pyridin-3-yl]ethyl]carbamoyl}oxy)propanoate] | 10 to 50 µM |
| CCCC(NC(=O)OC(Cc1ncccn1)C(=O)OC(C)C)c1ccc(C(F)(F)F)cc1 (centres unmarked) [Compound 21, Propan-2-yl 3-(pyrimidin-2-yl)-2-[({1-[4-(trifluoromethyl)phenyl]butyl}carbamoyl)oxy]propanoate] | 1 to 3 µM |

same assay, conditions: Homo sapiens; PBMC from buffy coats, LPS 3 h, compound 30 min, then ATP (5 mM) or nigericin (10 μM) 1 h; IL-1β in media by ELISA (Protocol A) or HTRF (Protocol B); read-out: Average PBMC IC50

| Compound | pIC50 |
| --- | --- |
| CCOC(=O)C(Cn1cccn1)OC(=O)N[C@@H](C)c1ccc(Cl)cc1 (stereo partly drawn) [Compound 1, Ethyl 2-({[(1S)-1-(4-chlorophenyl)ethyl]carbamoyl}oxy)-3-(1H-pyrazol-1-yl)propanoate] | 4.30 to 5.00 |
| CC(C)OC(=O)C(Cc1ncccn1)OC(=O)N[C@@H](C)c1ccc(Cl)cc1 (stereo partly drawn) [Compound 3, Propan-2-yl 2-({[(1S)-1-(4-chlorophenyl)ethyl]carbamoyl}oxy)-3-(pyrimidin-2-yl)propanoate] | > 6.00 |
| CC(C)OC(=O)C(Cc1ncccn1)OC(=O)N[C@@H](C)c1ccc(C#N)cc1 (stereo partly drawn) [Compound 4, Propan-2-yl 2-({[(1S)-1-(4-cyanophenyl)ethyl]carbamoyl}oxy)-3-(pyrimidin-2-yl)propanoate] | 5.52 to 6.00 |
| CC(C)OC(=O)C(Cc1ncccn1)OC(=O)N[C@@H](C)c1ccc(C(F)(F)F)cc1 (stereo partly drawn) [Compound 5, Propan-2-yl 3-(pyrimidin-2-yl)-2-({[(1S)-1-[4-(trifluoromethyl)phenyl]ethyl]carbamoyl}oxy)propanoate] | > 6.00 |
| CC(C)OC(=O)[C@@H](Cn1cncn1)OC(=O)N[C@@H](C)c1ccc(C(C)(C)C)cc1 [Compound 6, Propan-2-yl (2R)-2-({[(1S)-1-(4-tert-butylphenyl)ethyl]carbamoyl}oxy)-3-(1H-1,2,4-triazol-1-yl)propanoate] | > 6.00 |
| CC(C)OC(=O)[C@@H](Cn1cncn1)OC(=O)N[C@@H](C)c1ccc(OCC(F)(F)F)cc1 [Compound 7, Propan-2-yl (2R)-3-(1H-1,2,4-triazol-1-yl)-2-({[(1S)-1-[4-(2,2,2-trifluoroethoxy)phenyl]ethyl]carbamoyl}oxy)propanoate] | > 6.00 |
| CC(C)OC(=O)[C@@H](Cn1cncn1)OC(=O)N[C@@H](C)c1ccc(COc2ccccc2)cc1 [Compound 8, Propan-2-yl (2R)-2-({[(1S)-1-[4-(phenoxymethyl)phenyl]ethyl]carbamoyl}oxy)-3-(1H-1,2,4-triazol-1-yl)propanoate] | 5.52 to 6.00 |
| CC(C)OC(=O)[C@@H](Cn1cncn1)OC(=O)N[C@@H](C)c1ccc(C(F)(F)F)c(F)c1 [Compound 9, Propan-2-yl (2R)-2-({[(1S)-1-[3-fluoro-4-(trifluoromethyl)phenyl]ethyl]carbamoyl}oxy)-3-(1H-1,2,4-triazol-1-yl)propanoate] | > 6.00 |
| CC(C)OC(=O)[C@@H](Cn1cncn1)OC(=O)N[C@@H](C)c1ccc(C(F)(F)F)cc1 [Compound 11, Propan-2-yl (2R)-3-(1H-1,2,4-triazol-1-yl)-2-({[(1S)-1-[4-(trifluoromethyl)phenyl]ethyl]carbamoyl}oxy)propanoate] | > 6.00 |
| CC(C)OC(=O)C(Cc1ncccn1)OC(=O)NC(C)c1ccc(C(F)(F)F)cc1Cl (centres unmarked) [Compound 16, Isopropyl 2-[1-[2-chloro-4-(trifluoromethyl)phenyl]ethylcarbamoyloxy]-3-pyrimidin-2-yl-propaneate] | > 6.00 |
| CC(C)OC(=O)[C@@H](Cn1cncn1)OC(=O)NC(C)c1ncc(C(F)(F)F)cn1 (stereo partly drawn) [Compound 18, Propan-2-yl (2R)-3-(1H-1,2,4-triazol-1-yl)-2-[({1-[5-(trifluoromethyl)pyrimidin-2-yl]ethyl}carbamoyl)oxy]propanoate] | 5.00 to 5.52 |
| COc1cc(C(F)(F)F)ccc1C(C)NC(=O)OC(Cc1ncccn1)C(=O)OC(C)C (centres unmarked) [Compound 19, Propan-2-yl 2-[({1-[2-methoxy-4-(trifluoromethyl)phenyl]ethyl}carbamoyl)oxy]-3-(pyrimidin-2-yl)propanoate] | > 6.00 |
| Cc1cc(C(F)(F)F)ccc1C(C)NC(=O)OC(Cc1ncccn1)C(=O)OC(C)C (centres unmarked) [Compound 20, Isopropyl 2-[1-[2-methyl-4-(trifluoromethyl)phenyl]ethylcarbamoyloxy]-3-pyrimidin-2-yl-propanoate] | > 6.00 |
| CCc1cc(C(F)(F)F)ccc1C(C)NC(=O)OC(Cc1ncccn1)C(=O)OC(C)C (centres unmarked) [Compound 22, Propan-2-yl 2-[({1-[2-ethyl-4-(trifluoromethyl)phenyl]ethyl}carbamoyl)oxy]-3-(pyrimidin-2-yl)propanoate] | > 6.00 |
| CC(C)OC(=O)[C@@H](Cc1ncccn1)OC(=O)N[C@@H](C)c1ccc(C(F)(F)F)cc1 [Compound 23, Propan-2-yl (2R)-3-(pyrimidin-2-yl)-2-({[(1S)-1-[4-(trifluoromethyl)phenyl]ethyl]carbamoyl}oxy)propanoate] | > 6.00 |
| C[C@H](NC(=O)O[C@H](Cc1ncccn1)C(=O)O)c1ccc(C(F)(F)F)cc1 [Compound 24, (2R)-3-(Pyrimidin-2-yl)-2-({[(1S)-1-[4-(trifluoromethyl)phenyl]ethyl]carbamoyl}oxy)propanoic acid] | 5.00 to 5.52 |
| CC(C)OC(=O)[C@@H](Cc1ncccn1)OC(=O)N[C@@H](C)c1ccc(C(F)(F)F)cc1Cl [Compound 25, Propan-2-yl (2R)-2-({[(1S)-1-[2-chloro-4-(trifluoromethyl)phenyl]ethyl]carbamoyl}oxy)-3-(pyrimidin-2-yl)propanoate] | > 6.00 |
| C[C@H](NC(=O)O[C@H](Cc1ncccn1)C(=O)O)c1ccc(C(F)(F)F)cc1Cl [Compound 26, (2R)-2-({[(1S)-1-[2-Chloro-4-(trifluoromethyl)phenyl]ethyl]carbamoyl}oxy)-3-(pyrimidin-2-yl)propanoic acid] | 5.00 to 5.52 |
| CC(C)OC(=O)[C@@H](Cc1ncccn1)OC(=O)N(C)[C@@H](C)c1ccc(C(F)(F)F)cc1Cl [Compound 27, Propan-2-yl (2R)-2-({[(1S)-1-[2-chloro-4-(trifluoromethyl)phenyl]ethyl](methyl)carbamoyl}oxy)-3-(pyrimidin-2-yl)propanoate] | 5.52 to 6.00 |
